Reference: patent US8673353B2, “Tablet having improved elution properties” (Dainippon Sumitomo Pharma Co., Ltd, priority 2008, dated 2014)
Where a name gives a salt, the structure may show the parent alone.

Test: Particle size by laser diffraction particle size distribution meter (dry method)
Format: physicochemical
Conditions: HELOS&RODOS, drug substance used in the Examples
Source text: The above-mentioned particle sizes (undersize D50% particle size, undersize D90% particle size etc.) are values measured using a laser diffraction particle size distribution meter (dry method). For example, when a laser diffraction particle size distribution measurement apparatus HELOS & RODOS manufactured by Sympatec GmbH is used, measurement can be performed by setting the measurement range to R3 and the indication basis of the particle amount to volume basis.
The particle size of 3/2 fumarate of compound A used in the following Examples was 0.5-3 μm for undersize D50% and 1-12 μm for undersize D90% particle size, as measured by a dry method using a laser diffraction particle size distribution measurement apparatus, HELOS&RODOS, manufactured by Sympatec GmbH.

For `O=C1Nc2ccccc2C(c2ccccc2)N1C1CCN(Cc2cccc(OC(F)(F)F)c2)CC1` (single isomer, unassigned; (+)) [3/2 fumarate of compound A, (+)-3-{1-[3-(trifluoromethoxy)benzyl]piperidin-4-yl}-4-phenyl-3,4-dihydro-2(1H)-quinazolinone], the “undersize D50% particle size” value was 0.5-3 μm and the “undersize D90% particle size” value was 1-12 μm.
